Data published in ChEMBL document CHEMBL4699560, “Synthesis and Stereochemical Assignment of Conioidine A: DNA- and HSA-Binding Studies of the Four Diastereomers” (J Nat Prod, 2020).

Key:
Calf thymus DNA [1] = assay: Binding affinity to calf thymus DNA assessed as change in melting temperature at DNA to ligand ratio at 40:1 by spectrophotometric method; format: tissue-based; conditions: Bos taurus
Calf thymus DNA [2] = assay: Displacement of EtBr from calf thymus DNA incubated for 3 mins by fluorescence based assay; format: tissue-based; conditions: Bos taurus
Calf thymus DNA [3] = assay: Displacement of EtBr from calf thymus DNA assessed per base pair incubated for 3 mins by fluorescence based assay; format: tissue-based; conditions: Bos taurus
Albumin [4] = biological target: T1, Albumin (Homo sapiens, UniProt P02768); assay: Binding affinity to human serum albumin assessed as quenching constant by Stern-Volmer plot analysis; format: ADME, cell-free
Albumin [5] = biological target: T1, Albumin; assay: Binding affinity to human serum albumin […]; format: ADME, cell-free
Calf thymus DNA [6] = assay: Displacement of EtBr from calf thymus DNA at 50 uM incubated for 3 mins by fluorescence based assay relative to control; format: tissue-based; conditions: Bos taurus

T1 sequence (P02768 whole entry): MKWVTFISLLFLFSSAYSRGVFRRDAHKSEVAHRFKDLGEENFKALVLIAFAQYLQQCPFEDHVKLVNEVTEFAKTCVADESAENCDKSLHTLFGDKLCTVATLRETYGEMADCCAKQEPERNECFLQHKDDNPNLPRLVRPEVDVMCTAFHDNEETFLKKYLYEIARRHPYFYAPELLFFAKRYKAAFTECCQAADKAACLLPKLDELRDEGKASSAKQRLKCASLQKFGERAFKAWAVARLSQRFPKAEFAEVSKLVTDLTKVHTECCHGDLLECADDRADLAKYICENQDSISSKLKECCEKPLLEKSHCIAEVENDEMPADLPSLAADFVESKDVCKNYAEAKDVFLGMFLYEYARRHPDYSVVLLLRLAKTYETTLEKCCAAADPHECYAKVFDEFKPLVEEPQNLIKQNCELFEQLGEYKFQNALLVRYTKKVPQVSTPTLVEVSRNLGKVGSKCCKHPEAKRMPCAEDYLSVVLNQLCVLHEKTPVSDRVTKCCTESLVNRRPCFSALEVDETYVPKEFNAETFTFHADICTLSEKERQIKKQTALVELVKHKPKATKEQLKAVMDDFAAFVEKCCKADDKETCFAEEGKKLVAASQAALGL

SMILES | ΔTm (Calf thymus DNA [1]) [°C] | C50 (Calf thymus DNA [2]) [µM] | Kapp (Calf thymus DNA [3]) | KSV (Albumin [4]) | Kb (Albumin [5]) | Activity (Calf thymus DNA [6]) [%]
Cn1cc(NC(=O)c2cc(NC(=O)CNC(=N)N)cn2C)cc1C(=O)NCCC(=N)N | 0.7 | 10 | 5.1 10^6/M |  |  | 
C/C=C(\C)C(=O)O[C@@H](C)C[C@@H]1CCCN1C(=O)CCCCCCCCC |  | 470 |  | 3 10^4/M | 7.2 10^4/M | 
C/C=C(\C)C(=O)O[C@H](C)C[C@@H]1CCCN1C(=O)CCCCCCCCC |  | 380 |  | 3 10^4/M | 5.9 10^4/M | 
C/C=C(\C)C(=O)O[C@@H](C)C[C@H]1CCCN1C(=O)CCCCCCCCC |  | 340 |  | 1.3 10^5/M | 16 10^4/M | 
OC[C@H]1O[C@H](O)[C@H](O)[C@@H](O)[C@@H]1O | 10.3 | 390 |  |  |  | 
C/C=C(\C)C(=O)O[C@H](C)C[C@H]1CCCN1C(=O)CCCCCCCCC |  | 480 | 1.8 10^5/M | 7.2 10^5/M | 6.4 10^4/M | 93
